Key:
Format in all cases: functional
[1] = tested on: T47D; experiment: Cytotoxicity against Homo sapiens (human) T47D cells assessed as growth inhibition at 10 uM after 48 hr by coulter counter analysis; settings: read-out: GI
[2] = tested on: HCT-15; experiment: Cytotoxicity against Homo sapiens (human) HCT15 cells assessed as growth inhibition at 10 uM after 48 hr by coulter counter analysis; settings: HCT-15, 48 h, read-out: GI
[3] = tested on: HL-60(TB); experiment: Cytotoxicity against Homo sapiens (human) HL-60(TB) cells assessed as growth inhibition at 10 uM after 48 hr by coulter counter analysis; settings: HL-60, 48 h, read-out: GI
[4] = tested on: 786-0; experiment: Cytotoxicity against Homo sapiens (human) 786-0 cells assessed as growth inhibition at 10 uM after 48 hr by coulter counter analysis; settings: 786-0, 48 h, read-out: GI
[5] = tested on: PC-3; experiment: Cytotoxicity against Homo sapiens (human) PC3 cells assessed as growth inhibition at 10 uM after 48 hr by coulter counter analysis; settings: PC-3, 48 h, read-out: GI
[6] = tested on: NCI-H522; experiment: Cytotoxicity against Homo sapiens (human) NCI-H522 cells assessed as growth inhibition at 10 uM after 48 hr by coulter counter analysis; settings: NCI-H522, 48 h, read-out: GI
[7] = tested on: K562; experiment: Cytotoxicity against Homo sapiens (human) K562 cells assessed as growth inhibition at 10 uM after 48 hr by coulter counter analysis; settings: K562, 48 h, read-out: GI
[8] = tested on: MCF7; experiment: Cytotoxicity against Homo sapiens (human) MCF7 cells assessed as growth inhibition at 10 uM after 48 hr by coulter counter analysis; settings: MCF7, 48 h, read-out: GI
[9] = tested on: RPMI-8226; experiment: Cytotoxicity against Homo sapiens (human) RPMI8226 cells assessed as growth inhibition at 10 uM after 48 hr by coulter counter analysis; settings: RPMI-8226, 48 h, read-out: GI
[10] = tested on: MDA-MB-468; experiment: Cytotoxicity against Homo sapiens (human) MDA-MB-468 cells assessed as growth inhibition at 10 uM after 48 hr by coulter counter analysis; settings: MDA-MB-468, 48 h, read-out: GI
[11] = tested on: OVCAR-3; experiment: Cytotoxicity against Homo sapiens (human) OVCAR3 cells assessed as growth inhibition at 10 uM after 48 hr by coulter counter analysis; settings: OVCAR-3, 48 h, read-out: GI
[12] = tested on: OVCAR-5; experiment: Cytotoxicity against Homo sapiens (human) OVCAR5 cells assessed as growth inhibition at 10 uM after 48 hr by coulter counter analysis; settings: OVCAR-5, 48 h, read-out: GI
[13] = tested on: CCRF-CEM; experiment: Cytotoxicity against Homo sapiens (human) CCRF-CEM cells assessed as growth inhibition at 10 uM after 48 hr by coulter counter analysis; settings: read-out: GI
[14] = tested on: SF-295; experiment: Cytotoxicity against Homo sapiens (human) SF295 cells assessed as growth inhibition at 10 uM after 48 hr by coulter counter analysis; settings: SF-295, 48 h, read-out: GI
[15] = tested on: HOP-62; experiment: Cytotoxicity against Homo sapiens (human) HOP62 cells assessed as growth inhibition at 10 uM after 48 hr by coulter counter analysis; settings: HOP-62, 48 h, read-out: GI
[16] = tested on: NCI-H460; experiment: Cytotoxicity against Homo sapiens (human) NCI-H460 cells assessed as growth inhibition at 10 uM after 48 hr by coulter counter analysis; settings: NCI-H460, 48 h, read-out: GI
[17] = tested on: MDA-MB-435; experiment: Cytotoxicity against Homo sapiens (human) MDA-MB-435 cells assessed as growth inhibition at 10 uM after 48 hr by coulter counter analysis; settings: MDA-MB-435, 48 h, read-out: GI
[18] = tested on: SNB-75; experiment: Cytotoxicity against Homo sapiens (human) SNB75 cells assessed as growth inhibition at 10 uM after 48 hr by coulter counter analysis; settings: SNB-75, 48 h, read-out: GI
[19] = tested on: BT-549; experiment: Cytotoxicity against Homo sapiens (human) BT549 cells assessed as growth inhibition at 10 uM after 48 hr by coulter counter analysis; settings: BT-549, 48 h, read-out: GI
[20] = tested on: COLO 205; experiment: Cytotoxicity against Homo sapiens (human) COLO205 cells assessed as growth inhibition at 10 uM after 48 hr by coulter counter analysis; settings: COLO 205, 48 h, read-out: GI
[21] = tested on: SK-MEL-5; experiment: Cytotoxicity against Homo sapiens (human) SK-MEL-5 cells assessed as growth inhibition at 10 uM after 48 hr by coulter counter analysis; settings: SK-MEL-5, 48 h, read-out: GI
[22] = tested on: SF-539; experiment: Cytotoxicity against Homo sapiens (human) SF539 cells assessed as growth inhibition at 10 uM after 48 hr by coulter counter analysis; settings: SF-539, 48 h, read-out: GI
[23] = tested on: UACC-62; experiment: Cytotoxicity against Homo sapiens (human) UACC62 cells assessed as growth inhibition at 10 uM after 48 hr by coulter counter analysis; settings: UACC-62, 48 h, read-out: GI

Compound	inhibition of growth at 10 µM [1] [%]	inhibition of growth at 10 µM [2] [%]	inhibition of growth at 10 µM [3] [%]	inhibition of growth at 10 µM [4] [%]	inhibition of growth at 10 µM [5] [%]	inhibition of growth at 10 µM [6] [%]	inhibition of growth at 10 µM [7] [%]	inhibition of growth at 10 µM [8] [%]	inhibition of growth at 10 µM [9] [%]	inhibition of growth at 10 µM [10] [%]	inhibition of growth at 10 µM [11] [%]	inhibition of growth at 10 µM [12] [%]	inhibition of growth at 10 µM [13] [%]	inhibition of growth at 10 µM [14] [%]	inhibition of growth at 10 µM [15] [%]	inhibition of growth at 10 µM [16] [%]	inhibition of growth at 10 µM [17] [%]	inhibition of growth at 10 µM [18] [%]	inhibition of growth at 10 µM [20] [%]	inhibition of growth at 10 µM [21] [%]	further results
O=c1[nH]nnc2c1C(c1ccc(Cl)cc1)C1=C(CCCC1)N2 (stereo not drawn)	13.3	< 10	< 10	< 10	10.2	13.5	< 10	< 10	< 10	13.3	< 10	< 10	< 10	< 10	< 10	< 10	< 10	< 10	13.5	13	inhibition of growth at 10 µM [19]: < 10%; inhibition of growth at 10 µM [22]: < 10%
N#CCc1nc2c(c(=O)[nH]1)C(c1ccc(Cl)cc1)C1=C(CCCC1)N2 (stereo not drawn)	14.1	< 10	< 10	< 10	< 10	11.4	< 10	< 10	< 10	< 10	< 10	< 10	< 10	< 10	12.5	< 10	< 10	20.4	10.4	< 10	inhibition of growth at 10 µM [19]: < 10%; inhibition of growth at 10 µM [22]: < 10%
CN(C)c1ccc(-c2nc3c(c(=O)[nH]2)C(c2ccc(Cl)cc2)C2=C(CCCC2)N3)cc1 (stereo not drawn)	17.6	< 10	< 10	< 10	< 10	15.8	< 10	< 10	< 10	< 10	11.1	< 10	< 10	< 10	12.8	< 10	< 10	12	10.2	< 10	inhibition of growth at 10 µM [19]: < 10%; inhibition of growth at 10 µM [22]: < 10%
COc1ccc(-c2nc3c(c(=O)[nH]2)C(c2ccc(Cl)cc2)C2=C(CCCC2)N3)cc1OC (stereo not drawn)	< 10	< 10	< 10	< 10	12.5	10.1	< 10	13.5	< 10	< 10	< 10	< 10	< 10	< 10	10.2	< 10	< 10	11.2	< 10	13	inhibition of growth at 10 µM [19]: < 10%; inhibition of growth at 10 µM [22]: < 10%
COc1ccc(C2C3=C(CCCC3)Nc3nc(-c4ccc(N(C)C)cc4)[nH]c(=O)c32)cc1OC (stereo not drawn)	14.9	< 10	< 10	< 10	11.4	14.4	< 10	< 10	< 10	10.8	< 10	< 10	< 10	< 10	< 10	< 10	< 10	< 10	< 10	< 10	inhibition of growth at 10 µM [19]: < 10%; inhibition of growth at 10 µM [22]: < 10%
COc1ccc(-c2nc3c(c(=O)[nH]2)C(c2ccc(OC)c(OC)c2)C2=C(CCCC2)N3)cc1OC (stereo not drawn)	28.3	10.7	< 10	< 10	17.1	25.8	< 10	34.3	10.8	28.5	< 10	< 10	11.7	< 10	12.3	< 10	< 10	22.6	10.3	18.6	inhibition of growth at 10 µM [23]: < 10%; inhibition of growth at 10 µM [22]: 14.5%
COc1ccc(C2C3=C(CCCC3)Nc3ncn4nc(-c5ccccc5)nc4c32)cc1OC (stereo not drawn)	26.2	13.1	< 10	< 10	19.8	31.4	< 10	< 10	10.5	23.2	< 10	11.7	< 10	29.6	< 10	< 10	< 10	< 10	< 10	< 10	inhibition of growth at 10 µM [23]: < 10%; inhibition of growth at 10 µM [19]: < 10%; inhibition of growth at 10 µM [22]: < 10%
COc1ccc(C2C3=C(CCCC3)Nc3ncn4nc(-c5ccc(O)cc5)nc4c32)cc1OC (stereo not drawn)	18.8	< 10	< 10	< 10	< 10	16.4	< 10	< 10	< 10	21.4	< 10	< 10	< 10	< 10	< 10	< 10	< 10	19.1	< 10	23.2	inhibition of growth at 10 µM [23]: < 10%; inhibition of growth at 10 µM [19]: < 10%; inhibition of growth at 10 µM [22]: < 10%

Source: ChEMBL document CHEMBL3045802, “Synthesis and in vitro antitumor activity of new quinoline, pyrimido[4,5-b]quinoline, [1,2,3]triazino[4,5-b]quinoline, and [1,2,4]triazolo[2,3:3,4]pyrimido[6,5-b]quinoline analogs” (2013)
